Results: patent publication US11186577B2, “Vasopressin receptor antagonists and products and methods related thereto” (BlackThorn Therapeutics, Inc., priority 2017, dated 2021)
Read-outs that look alike come from different tables or passages of the source.

Assays:
Format in all cases: cell-based
[1] = biological target: human Arginine Vasopressin Receptor 1a (AVPR1a) (Homo sapiens (Human), UniProt P37288); test: Vasopressin V1A receptor antagonist assay (AVP-evoked calcium, FLIPR, CHO-AVPR1a cells)
Experimental: The purpose of this assay was to determine the inhibitory effect of synthesized compounds on the Vasopressin V1a receptor. The assay as performed in Chinese Hamster Ovary (CHO) cells expressing the human Arginine Vasopressin Receptor 1a (AVPR1a). Arginine Vasopressin (AVP) evokes an increase in intracellular calcium in CHO-AVPR1a cells which is measured in a fluorescence assay on the FLIPR^TETRA using calcium sensitive dyes. Test compounds were assessed for their ability to affect the magnitude of the response to AVP, with antagonists showing a concentration-dependent reduction in the AVP-mediated fluorescence. Compounds were tested in duplicate in a 10-point, 1:3 dilution series starting at a nominal concentration of 3 μM in the assay.
CHO-AVPR1a cells were maintained in routine culture in T175 Flasks at 37° C., 5% CO2. The growth medium consists of Ham's F12 media supplemented with 10% v/v fetal bovine serum, 1× non-essential amino acids, and 0.4 mg/ml Geneticin G418.
(§1) On day one, cells were harvested from T175 flasks when they are 80-90% confluent by first washing the cell monolayer with PBS and then dissociated using trypsin 0.05%/EDTA (3 mL for a T175 Flask). The flasks were incubated at room temperature until the cells detached. To the cell suspension, 10 ml of growth media was added and the cell density determined using the Vi-Cell automated cell counter. The cells were spun at 1000 rpm for 3 minutes, then the supernatant was carefully removed and discarded. The cell pellet was re-suspended at 6.0e^5 cells/ml in growth media. 25 μL of cells in growth media was dispensed into each well (15,000 cells per well) of a poly-D-lysine coated black, clear bottomed, 384-well plate. The plates were incubated at 37° C., 5% CO2 overnight.
At the start of each assay day, the potency of AVP was assessed and an EC80 concentration determined for subsequent compound profiling. Assays were performed using a two-step addition protocol on the FLIPR^TETRA; first addition of 5 μl of control or test compound at 10× final in assay buffer with 15 min incubation at 37° C., 5% CO2 followed by 10 μl of AVP at 6× final concentration in assay buffer. […] The assay buffer consisted of HBSS (+Ca/+Mg) supplemented with 20 mM HEPES, and for the preparation of the AVP agonist only, 0.1% w/v bovine serum albumin. The assay was initiated by the removal of growth media from the cells and replacement with 45 μl of Calcium-6 dye (Molecular Devices) prepared at 1× in assay buffer. Cells are loaded with dye for 60-90 min at 37° C., 5% CO2 before initiation of the FLIPR^TETRA protocol. […] At the end of the incubation period, 10 μl of AVP in assay buffer containing 0.1% BSA was added at the previously determined EC80 concentration.

[2] = biological target: human Oxytocin Receptor (hOTR) (Homo sapiens (Human), UniProt P30559); test: Oxytocin receptor antagonist assay (oxytocin-evoked calcium, FLIPR, CHEM-1-hOTR cells); conditions: read-out: OT IC50
Experimental: This assay was performed in CHEM-1 cells expressing the human Oxytocin Receptor (hOTR) to determine the inhibitory effect of the compounds of the invention on the human Oxytocin receptor. Oxytocin evokes an increase in intracellular calcium in CHEM-1-hOTR cells which is measured in a fluorescence assay on the FLIPR^TETRA using calcium sensitive dyes. Test compounds were assessed for their ability to affect the magnitude of the response to oxytocin, with antagonists showing a concentration-dependent reduction in the oxytocin-mediated fluorescence.
CHEM-1-hOTR ready was used to assay frozen cells (Eurofins #HTS090RTA) which are supplied with a proprietary Media Component.
Cells were thawed in a 37° C. water bath and diluted with the supplied Media Component to a final volume of 10 ml. The cell suspension was centrifuged at 1000 rpm for 3 min at room temperature and the supernatant was discarded. The cell pellet was resuspended in Media Component (10.5 ml) and the cells (25 μL) were dispensed into a poly-D-lysine coated black, clear bottomed, 384-well plate. The plates were incubated overnight at 37° C., 5% CO2.
(§2) At the start of each assay day the potency of oxytocin was assessed and an EC80 concentration was determined for subsequent compound profiling. Assays were performed using a two-step addition protocol on the FLIPR^TETRA; first addition of 5 μl of control or test compound at 10× final in assay buffer with 15 min incubation at 37° C., 5% CO2 followed by 10 μl of oxytocin at 6× final concentration in assay buffer. Changes in fluorescence were monitored for 3 min after both additions on the FLIPR^TETRA using 470-495 nm excitation and 515-575 nm emission wavelengths. The assay buffer consisted of HBSS (+Ca/+Mg) supplemented with 20 mM HEPES, and for the preparation of the oxytocin agonist only, 0.1% w/v bovine serum albumin. The assay was initiated by the removal of growth media from the cells and replaced with 45 μl of Calcium-6 dye (Molecular Devices) prepared at 1× in assay buffer. Cells were loaded with dye for 60-90 min at 37° C., 5% CO2 before initiation of the FLIPR^TETRA protocol. […] For compound profiling, test compounds were first serially diluted in DMSO (10-point curve, 1:3 dilutions) then diluted 33.3-fold in assay buffer prior to addition to the dye loaded cells on the FLIPR^TETRA. At the end of the incubation period 10 μl of oxytocin in assay buffer containing 0.1% BSA was added at the previously determined EC80 concentration.
In-plate controls for the assay include a L-368,899 concentration-response curve as the reference OTR antagonist and an oxytocin concentration-response curve to confirm the reproducibility of the EC80 used for the compound challenge.

[3] = biological target: human Arginine Vasopressin Receptor 1b (AVPR1b) (Homo sapiens (Human), UniProt P47901); test: Vasopressin V1B receptor antagonist assay (AVP-evoked calcium, FLIPR, CHO-AVPR1b cells)
Experimental: The purpose of the assay is to determine the inhibitory effect of synthesized compounds on the Vasopressin V1b receptor. The assay was performed in Chinese Hamster Ovary (CHO) cells expressing the human Arginine Vasopressin Receptor 1b (AVPR1b). Arginine Vasopressin (AVP) evokes an increase in intracellular calcium in CHO-AVPR1b cells which is measured in a fluorescence assay on the FLIPR^TETRA using calcium sensitive dyes. Test compounds were assessed for their ability to affect the magnitude of the response to AVP, with antagonists showing a concentration-dependent reduction in the AVP-mediated fluorescence.
CHO-AVPR1b cells were maintained in routine culture in T175 Flasks at 37° C., 5% CO2. The growth medium consisted of Ham's F12 media supplemented with 10% v/v fetal bovine serum, 1× non-essential amino acids, and 0.4 mg/ml Geneticin G418.
as §1, with “Cells were” for “On day one, cells were”, “they were” for “they are”
as §2, with “day,” for “day”, “AVP is” for “oxytocin was”, “concentration” for “concentration was”, “AVP” for “oxytocin”, “replacement” for “replaced”
In-plate controls for the assay include a Nelivaptan concentration-response curve as the reference V1b antagonist and an AVP concentration-response curve to confirm the reproducibility of the EC80 used for the compound challenge.

human Arginine Vasopressin Receptor 1a (AVPR1a), sequence (P37288 whole entry): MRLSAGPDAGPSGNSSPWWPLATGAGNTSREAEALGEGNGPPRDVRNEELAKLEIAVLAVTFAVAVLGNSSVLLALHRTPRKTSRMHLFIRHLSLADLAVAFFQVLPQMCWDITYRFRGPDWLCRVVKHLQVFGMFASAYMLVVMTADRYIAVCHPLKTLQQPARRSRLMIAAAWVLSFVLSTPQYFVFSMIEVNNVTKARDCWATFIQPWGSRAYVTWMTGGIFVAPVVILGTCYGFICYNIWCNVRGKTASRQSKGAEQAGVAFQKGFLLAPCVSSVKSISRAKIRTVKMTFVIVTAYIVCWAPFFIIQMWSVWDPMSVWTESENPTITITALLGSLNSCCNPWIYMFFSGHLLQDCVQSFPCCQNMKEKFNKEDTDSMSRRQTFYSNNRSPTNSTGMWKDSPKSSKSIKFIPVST
human Oxytocin Receptor (hOTR), sequence (P30559 whole entry): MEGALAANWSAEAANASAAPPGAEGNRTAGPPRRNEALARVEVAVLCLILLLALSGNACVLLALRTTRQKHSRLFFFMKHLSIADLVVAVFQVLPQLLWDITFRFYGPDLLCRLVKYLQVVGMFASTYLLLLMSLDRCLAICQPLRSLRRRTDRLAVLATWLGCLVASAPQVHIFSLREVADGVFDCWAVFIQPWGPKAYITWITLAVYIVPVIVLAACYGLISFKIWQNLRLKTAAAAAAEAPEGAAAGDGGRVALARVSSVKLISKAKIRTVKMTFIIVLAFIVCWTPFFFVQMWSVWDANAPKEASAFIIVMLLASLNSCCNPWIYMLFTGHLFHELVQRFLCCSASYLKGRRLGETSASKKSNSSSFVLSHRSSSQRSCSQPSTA
human Arginine Vasopressin Receptor 1b (AVPR1b), sequence (P47901 whole entry): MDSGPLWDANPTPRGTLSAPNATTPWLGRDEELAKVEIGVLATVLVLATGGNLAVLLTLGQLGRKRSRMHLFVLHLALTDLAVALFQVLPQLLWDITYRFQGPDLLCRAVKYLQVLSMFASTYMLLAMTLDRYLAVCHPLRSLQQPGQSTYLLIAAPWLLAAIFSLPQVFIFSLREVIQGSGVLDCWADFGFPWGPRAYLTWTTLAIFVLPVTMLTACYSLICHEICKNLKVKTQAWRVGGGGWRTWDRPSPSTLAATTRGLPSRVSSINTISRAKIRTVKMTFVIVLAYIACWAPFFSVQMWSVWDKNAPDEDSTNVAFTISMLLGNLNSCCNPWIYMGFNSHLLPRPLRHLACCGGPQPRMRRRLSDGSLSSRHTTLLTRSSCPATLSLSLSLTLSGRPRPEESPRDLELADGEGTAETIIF

Compound	IC50 ([1]; read-out: V1a IC50) [nM]	IC50 [2] [nM]	IC50 [3] [nM]	IC50 [1] [nM]
CC1c2nnc(C3CC4(C3)CN(c3ccc(F)cn3)C4)n2-c2ccc(Cl)cc2CN1C(=O)OC(CF)CF (single isomer, unassigned) [Cpd 203B]	> 1000	> 1000		
CC(C)OC(=O)N1Cc2cc(Cl)ccc2-n2c(C3CC4(C3)CN(c3cccc(C#N)n3)C4)nnc2C1C (single isomer, unassigned) [Cpd 204A]	< 100	100 to 500	> 1000	
CC(C)OC(=O)N1Cc2cc(Cl)ccc2-n2c(C3CC4(C3)CN(c3cccc(C#N)n3)C4)nnc2C1C (single isomer, unassigned) [Cpd 204B]	100 to 500	> 1000	> 1000	
CN1Cc2cc(Cl)ccc2-n2c(nnc2C2CC3(C2)CN(c2cccnc2)C3)C1 [compound 5]		> 1000		100 to 500
Cc1cccc(N2CC3(CC(c4nnc5n4-c4ccc(Cl)cc4CN(C)C5)C3)C2)n1 [compound 6]	< 100	> 1000		
COc1cccc(N2CC3(CC(c4nnc5n4-c4ccc(Cl)cc4CN(C)C5)C3)C2)n1 [compound 7]		> 1000		100 to 500
CN1Cc2cc(Cl)ccc2-n2c(nnc2C2CC3(C2)CN(C(=O)OC(C)(C)C)C3)C1 [compound 9]		500 to 1000		100 to 500
CN1Cc2cc(Cl)ccc2-n2c(nnc2C2CC3(C2)CN(c2cncc(F)c2)C3)C1 [compound 10]		> 1000		100 to 500
COc1ccc(N2CC3(CC(c4nnc5n4-c4ccc(Cl)cc4CN(C)C5)C3)C2)nc1 [compound 11]		> 1000		500 to 1000
Cc1ccc(N2CC3(CC(c4nnc5n4-c4ccc(Cl)cc4CN(C)C5)C3)C2)nc1 [compound 12]		> 1000		100 to 500
CN1Cc2cc(Cl)ccc2-n2c(nnc2C2CC3(C2)CN(c2cccnn2)C3)C1 [compound 13]		> 1000		100 to 500
CN1Cc2cc(Cl)ccc2-n2c(nnc2C2CC3(C2)CN(C(=O)C2COC2)C3)C1 [compound 14]	> 1000	> 1000		
CC(=O)N1CC2(CC(c3nnc4n3-c3ccc(Cl)cc3CN(C)C4)C2)C1 [compound 15]	> 1000	> 1000		
CCC(=O)N1Cc2cc(Cl)ccc2-n2c(nnc2C2CC3(C2)CN(C(=O)C2CCC2)C3)C1 [compound 37]	< 100	> 1000		
CCOC(=O)N1Cc2cc(Cl)ccc2-n2c(nnc2C2CC3(C2)CN(c2ccccn2)C3)C1 [compound 68]	< 100	> 1000		
CCC(=O)N1Cc2cc(Cl)ccc2-n2c(nnc2C2CC3(C2)CN(c2cccnn2)C3)C1 [compound 108]	< 100	> 1000		
CCC(=O)N1Cc2cc(Cl)ccc2-n2c(nnc2C2CC3(C2)CN(c2cccc(C)n2)C3)C1 [compound 109]	< 100	> 1000		
CCC(=O)N1Cc2cc(Cl)ccc2-n2c(nnc2C2CC3(C2)CN(c2ccc(F)nn2)C3)C1 [compound 112]	< 100	> 1000		
O=C(C(F)F)N1Cc2cc(Cl)ccc2-n2c(nnc2C2CC3(C2)CN(C(=O)C2CC2)C3)C1 [compound 138]	< 100	> 1000		
CCC(=O)N1Cc2cc(Cl)ccc2-n2c(nnc2C2CC3(C2)CN(c2ncc(F)cn2)C3)C1 [compound 157]	< 100	> 1000		
COC(=O)N1Cc2cc(Cl)ccc2-n2c(C3CC4(C3)CN(c3ncncc3F)C4)nnc2C1C (centres unmarked) [compound 183]		100 to 500		100 to 500
COC(=O)N1Cc2cc(Cl)ccc2-n2c(C3CC4(C3)CN(c3ncncc3F)C4)nnc2C1C (centres unmarked) [compound 188]	< 100	100 to 500		
CCOC(=O)N1Cc2cc(Cl)ccc2-n2c(C3CC4(C3)CN(c3nccc(C(F)F)n3)C4)nnc2C1C (centres unmarked) [compound 189]	< 100	> 1000		
CC1c2nnc(C3CC4(C3)CN(c3ccc(F)cn3)C4)n2-c2ccc(Cl)cc2CN1C(=O)OC1CC1 (centres unmarked) [compound 191, cyclopropyl 8-chloro-1-(2-(5-fluoropyridin-2-yl)-2-azaspiro[3.3]heptan-6-yl)-4-methyl-4H-benzo[f][1,2,4]triazolo[4,3-a][1,4]diazepine-5(6H)-carboxylate]	< 100	500 to 1000		
